From paper PMC7490411 (Signal Transduction and Targeted Therapy, 2020)

Experiments:
MEK3 = experiment: KINOMEscan; type: binding; conditions: 1000 nM
NEK4 = experiment: KINOMEscan; type: binding; conditions: 1000 nM
PCTK3 = experiment: KINOMEscan; type: binding; conditions: 1000 nM
TAOK2 = experiment: KINOMEscan; type: binding; conditions: 1000 nM
SRPK1 = experiment: KINOMEscan; type: binding; conditions: 1000 nM
DCAMKL2 = experiment: KINOMEscan; type: binding; conditions: 1000 nM
YANK1 = experiment: KINOMEscan; type: binding; conditions: 1000 nM
EPHA6 = experiment: KINOMEscan; type: binding; conditions: 1000 nM
MAP3K1 = experiment: KINOMEscan; type: binding; conditions: 1000 nM
EPHB1 = experiment: KINOMEscan; type: binding; conditions: 1000 nM
JNK3 = experiment: KINOMEscan; type: binding; conditions: 1000 nM
[1] = tested on: RPS6KA5(Kin.Dom.1-N-terminal); experiment: KINOMEscan; type: binding; conditions: 1000 nM
QSK = experiment: KINOMEscan; type: binding; conditions: 1000 nM
CLK2 = experiment: KINOMEscan; type: binding; conditions: 1000 nM
WNK3 = experiment: KINOMEscan; type: binding; conditions: 1000 nM
LCK = experiment: KINOMEscan; type: binding; conditions: 1000 nM
ACVR2A = experiment: KINOMEscan; type: binding; conditions: 1000 nM
WNK4 = experiment: KINOMEscan; type: binding; conditions: 1000 nM
NEK7 = experiment: KINOMEscan; type: binding; conditions: 1000 nM
HCK = experiment: KINOMEscan; type: binding; conditions: 1000 nM
MYLK = experiment: KINOMEscan; type: binding; conditions: 1000 nM
[2] = tested on: panel of B-cell lymphoma cell lines; experiment: anti-proliferative CellTiter-Glo assay, whole panel; type: cell-based; conditions: all cell lines of the B-cell lymphoma panel
Protocol: Cell viability was measured using the CellTiter–Glo assay (Promega, USA) according to the manufacturer’s instructions, and […] was measured in a Bio-red Microplate reader (Bio-Red, USA).

RET = experiment: KINOMEscan; type: binding; conditions: 1000 nM
[3] = tested on: REC-1 cells bone marrow engraftment; experiment: REC-1 cells bone marrow engrafted mouse model; type: in vivo; conditions: REC-1 bone marrow engraftment
Protocol: Five-week old female NOD-SCID mice were purchased from the Beijing Vital River Laboratory Animal Technology Co., Ltd (Beijing, China). All animals were housed in a specific pathogen free facility and used according to the animal care regulations of Hefei Institutes of Physical Science, Chinese Academy of Sciences. NOD-SCID mice were induced by intraperitoneal injection of cyclophosphamide (CTX) 50 mg/kg daily for two days. 8 million REC-1 cells in 0.3 mL RPMI1640 medium were injected by intravenous after 24 h. […] Mice were monitored daily and were euthanized when moribund or at early signs of hind limb paralysis.

NDR1 = experiment: KINOMEscan; type: binding; conditions: 1000 nM
CSF1R = experiment: KINOMEscan; type: binding; conditions: 1000 nM
PIK3C2G = experiment: KINOMEscan; type: binding; conditions: 1000 nM
CASK = experiment: KINOMEscan; type: binding; conditions: 1000 nM
GRK4 = experiment: KINOMEscan; type: binding; conditions: 1000 nM
PIK3CA(E542K) = experiment: KINOMEscan; type: binding; conditions: 1000 nM
VPS34 = experiment: KINOMEscan; type: binding; conditions: 1000 nM
CAMK4 = experiment: KINOMEscan; type: binding; conditions: 1000 nM
PLK2 = experiment: KINOMEscan; type: binding; conditions: 1000 nM
CAMK1D = experiment: KINOMEscan; type: binding; conditions: 1000 nM
PHKG1 = experiment: KINOMEscan; type: binding; conditions: 1000 nM
PRKCD = experiment: KINOMEscan; type: binding; conditions: 1000 nM
HIPK1 = experiment: KINOMEscan; type: binding; conditions: 1000 nM
[4] = tested on: RPS6KA4(Kin.Dom.1-N-terminal); experiment: KINOMEscan; type: binding; conditions: 1000 nM
CSNK1A1 = experiment: KINOMEscan; type: binding; conditions: 1000 nM
ADCK4 = experiment: KINOMEscan; type: binding; conditions: 1000 nM
BTK = target: T1, BTK (Homo sapiens, UniProt Q06187); experiment: ADP-Glo biochemical kinase assay; conditions: purified BTK protein, read-out: IC50 against BTK
T1 construct: purchased Invitrogen (Carlsbad, CA, USA)
T1 sequence (Q06187 whole entry): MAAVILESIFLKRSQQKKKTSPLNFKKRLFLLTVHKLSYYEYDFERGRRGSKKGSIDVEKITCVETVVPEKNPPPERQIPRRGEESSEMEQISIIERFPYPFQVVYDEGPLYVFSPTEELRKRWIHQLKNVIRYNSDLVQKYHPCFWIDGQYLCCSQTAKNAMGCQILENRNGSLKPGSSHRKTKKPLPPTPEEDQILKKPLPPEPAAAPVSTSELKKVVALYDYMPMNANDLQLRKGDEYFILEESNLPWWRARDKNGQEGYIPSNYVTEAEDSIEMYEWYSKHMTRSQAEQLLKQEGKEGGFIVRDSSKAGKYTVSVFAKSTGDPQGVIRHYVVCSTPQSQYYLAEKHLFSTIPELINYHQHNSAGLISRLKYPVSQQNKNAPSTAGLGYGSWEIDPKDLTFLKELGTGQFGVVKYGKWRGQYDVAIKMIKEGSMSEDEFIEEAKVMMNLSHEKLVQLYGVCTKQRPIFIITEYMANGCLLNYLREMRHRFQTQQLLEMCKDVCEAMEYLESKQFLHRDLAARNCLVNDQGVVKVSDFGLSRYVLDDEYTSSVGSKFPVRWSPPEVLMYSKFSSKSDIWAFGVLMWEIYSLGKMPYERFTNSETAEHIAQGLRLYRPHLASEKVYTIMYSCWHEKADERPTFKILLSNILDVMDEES
Protocol: ADP-Glo^TM assay kits from Promega Corporation were used according to instructions. CHMFL-BTK-85 was generally prepared with 1:3 serial dilutions for 4 concentrations (300 nM, 100 nM, 30 nM, and 10 nM). 8 concentrations were used (1 μM to 1 nM) for ATP competition experiments. 2.5 µL BTK (10 ng/µL) was incubated with CHMFL-BTK-85 and CHMFL-BTK-85R for 60 min at room temperature in reaction buffer followed by addition of 2.5 µL ATP/substrate mixture. The assay was conducted for 1 h at 37 °C. After the plate cooled for 5 min at room temperature, 5 μL of ADP-Glo reagent was added into each well to stop the reaction and consume the remaining […] within 40 min. At the end, 10 µL kinase detection reagent was added and incubated for 30 min at room temperature. The luminescence signal was read with an envision Perkin Elmer plate reader (Envision, PE, USA).
The biochemical tests of BMX, BLK, JAK3, TXK, HER2, HER4, ITK, EGFR, and BTK were provided by Invitrogen (Carlsbad, CA, USA).

RIOK3 = experiment: KINOMEscan; type: binding; conditions: 1000 nM
p38-alpha = experiment: KINOMEscan; type: binding; conditions: 1000 nM

C=CC(=O)Nc1cc(Nc2cc(-c3cccc(NC(=O)c4cc5c(s4)CCCC5)c3C)cn(C)c2=O)ccc1N1CCN(CC)CC1 [CHMFL-BTK-85]
Percent Control (MEK3): 100% | Percent Control (NEK4): 100% | Percent Control (PCTK3): 86% | Percent Control (TAOK2): 96% | Percent Control (SRPK1): 100% | Percent Control (DCAMKL2): 88% | Percent Control (YANK1): 100% | Percent Control (EPHA6): 100% | Percent Control (MAP3K1): 99% | Percent Control (EPHB1): 100% | Percent Control (JNK3): 98% | Percent Control [1]: 90% | Percent Control (QSK): 100% | Percent Control (CLK2): 84% | Percent Control (WNK3): 100% | Percent Control (LCK): 86% | Percent Control (ACVR2A): 97% | Percent Control (WNK4): 82% | Percent Control (NEK7): 96% | Percent Control (HCK): 100% | Percent Control (MYLK): 66% | GI50s [2]: < 2 µM | Percent Control (RET): 100% | median survival time ([3]; 50 mg/kg/day p.o.): 42 days | median survival time ([3]; 150 mg/kg/day p.o.): 63 days | Percent Control (NDR1): 100% | Percent Control (CSF1R): 90% | Percent Control (PIK3C2G): 63% | Percent Control (CASK): 100% | Percent Control (GRK4): 88% | Percent Control (PIK3CA(E542K)): 99% | Percent Control (VPS34): 100% | Percent Control (CAMK4): 100% | Percent Control (PLK2): 100% | Percent Control (CAMK1D): 100% | Percent Control (PHKG1): 94% | Percent Control (PRKCD): 77% | Percent Control (HIPK1): 75% | Percent Control [4]: 87% | Percent Control (CSNK1A1): 100% | Percent Control (ADCK4): 100% | IC50 (BTK): 11.5 nM | Percent Control (RIOK3): 100% | Percent Control (p38-alpha): 93%
